Assay results from patent US20090105278A1, “Selective inhibitors of human corticosteroid syntheses” (Universitat Des Saarlandes, priority 2004, published 2009).
Where a name gives a salt, the structure may show the parent alone.

Legend:
[1] = target: T1, human CYP17 (Homo sapiens, UniProt P05093); assay: Percent inhibition of CYP17 (membrane fraction of E. coli pJL17/OR); type: biochemical; conditions: E. coli which expresses human CYP17, 5 mg/ml protein, progesterone substrate 2.5 μM, inhibitor 2.5 μM; for inhibition at 2.5 µM: read-out: % Inhibition human CYP17
T1 construct: made in house; host or cells: E. coli pJL17/OR (membrane fraction)
T1 sequence (P05093 1-508): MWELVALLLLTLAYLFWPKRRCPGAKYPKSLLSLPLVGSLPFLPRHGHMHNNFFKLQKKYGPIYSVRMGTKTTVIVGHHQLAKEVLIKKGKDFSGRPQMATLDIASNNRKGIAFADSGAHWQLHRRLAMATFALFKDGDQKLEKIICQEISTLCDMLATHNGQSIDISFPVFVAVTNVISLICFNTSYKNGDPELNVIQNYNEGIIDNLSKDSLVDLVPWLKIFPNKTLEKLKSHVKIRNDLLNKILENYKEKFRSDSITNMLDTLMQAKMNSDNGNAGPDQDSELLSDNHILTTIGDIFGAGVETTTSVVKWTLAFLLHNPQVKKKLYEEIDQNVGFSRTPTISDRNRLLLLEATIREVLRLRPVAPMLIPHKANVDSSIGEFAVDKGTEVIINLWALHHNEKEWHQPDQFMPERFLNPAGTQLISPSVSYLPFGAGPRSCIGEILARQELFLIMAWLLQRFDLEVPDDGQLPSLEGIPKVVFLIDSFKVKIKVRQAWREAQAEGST
Method in brief: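 Membranes were isolated from E. coli pJL17/OR, which coexpresses human CYP17 with rat NADPH-P450-reductase, by lysozyme treatment, sonication and centrifugation at 50,000 g, then stored at −70° C. Reactions were started with diluted membrane suspension (0.8 to 1 mg of protein per ml), incubated at 37° C for 30 min, extracted with EtOAc and analyzed by HPLC. Inhibition was calculated from reduced substrate conversion versus DMSO controls.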

[2] = target: T2, human CYP11B2 (Homo sapiens, UniProt P19099); assay: V79 MZh 11B2 cells inhibition test; type: cell-based; set-up: expressed in transfected cells; host or cells: V79 MZh11B2 (Chinese hamster lung fibroblasts); conditions: for IC50: hamster fibroblasts which express human CYP11B2, deoxycorticosterone substrate 100 nM, read-out: IC50 V79 11B2 hCYP11B2
T2 sequence (P19099 25-503): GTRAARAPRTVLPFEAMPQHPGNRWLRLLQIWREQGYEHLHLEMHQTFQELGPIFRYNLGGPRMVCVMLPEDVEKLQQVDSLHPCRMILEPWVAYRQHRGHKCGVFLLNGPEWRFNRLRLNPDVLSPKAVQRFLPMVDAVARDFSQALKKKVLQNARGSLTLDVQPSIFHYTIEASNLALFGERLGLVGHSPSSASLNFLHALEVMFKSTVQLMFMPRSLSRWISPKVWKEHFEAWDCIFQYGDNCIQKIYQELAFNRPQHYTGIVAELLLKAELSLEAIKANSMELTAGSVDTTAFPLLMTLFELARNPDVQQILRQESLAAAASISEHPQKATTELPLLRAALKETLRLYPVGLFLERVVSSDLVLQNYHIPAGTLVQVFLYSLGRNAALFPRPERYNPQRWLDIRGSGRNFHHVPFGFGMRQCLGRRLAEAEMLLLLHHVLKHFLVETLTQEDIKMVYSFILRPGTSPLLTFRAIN
Protocol: Both cell lines were cultured in DMEM^+ containing […] and the antibiotics penicillin and streptomycin (10%) for protection from bacterial contamination. The cells were passaged every 2-3 days after treatment with trypsin/EDTA because the doubling rate was 1-2 days depending on the number of cells. […] When there was further need, freshly thawed cells were employed.
Thereafter, the plate was stored at 37° C. and […] in a CO2 incubator. The V79 MZh 11B1 cells were incubated for 120 min, and the V79 MZh 11B2 cells were incubated for 40 min. Controls without inhibitor were treated in the same way. The enzyme reactions were quenched by extracting the supernatant with 500 μl of EtOAc. The samples were centrifuged (10,000 g, 2 min), the solvent was removed and evaporated.
For V79 MZh11B2, the conversion rate was obtained in accordance with equation 3: […]
It was calculated by determining the percent inhibition for at least 3 different inhibitor concentrations, which must all be in the linear range of the sigmoidal IC50 curve (log C/% inhibition).
The calculation was effected by linear regression. The values determined were used only if they formed a straight line with a reliability of […].
The plate was developed twice with the mobile solvent chloroform:methanol:water (300:20:1). Unlabeled 11-deoxycorticosterone and corticosterone were applied as a reference for the CYP11B1 reaction. For the CYP11B2 reaction, 11-deoxycorticosterone, corticosterone, 18-hydroxycorticosterone and aldosterone were used as references. The detection of the unlabeled references was effected at 260 nm. Subsequently, imaging plates (BAS MS2340, for ^14C samples, Raytest, Straubenhardt, Germany) were exposed to the HPTLC plates for 48 h. The imaging plates were scanned with the phosphoimager system Fuji FLA 3000 (Raytest, Straubenhardt, Germany), and the steroids were quantified.

Row | Compound | inhibition at 2.5 µM [1] [%] | IC50 [2] [nM] | % Inhibition human CYP17 [1] [%] | Selectivity factor IC50 (CYP11B1)/IC50 (CYP11B2) ([2]; V79 cells expressing human CYP11B1 or CYP11B2)
1 | C(=C1/CCCc2ccccc21)/c1cnc[nH]1 [Compound 41a, 5-[(E)-3,4-Dihydronaphth-1(2H)-ylidenemethyl]-1H-imidazole] | 13 | – | – | –
2 | 5-[(Z)-(5-Chloro-2,3-dihydro-1H-indene-1-ylidene)methyl]-1H-imidazolium oxalate [Compound 48b] | – | – | 26 | five times
3 | Fc1ccc2c(c1)CC/C2=C/c1cccc2cnccc12 [Compound 30b, 5-[(Z)-(5-Fluoro-2,3-dihydro-1H-indane-1-ylidene)methyl]isoquinoline Hydrochloride] | 65 | 26.1 | – | –
4 | C(=C1\CCc2ccccc21)/c1cnc[nH]1 [Compound 42b, 5-[(Z)-2,3-Dihydro-1H-ind-1-ylidenemethyl]-1H-imidazolium oxalate] | 1 | 11 | – | –
5 | Brc1ccc2c(c1)CC/C2=C\c1cnc[nH]1.Cl [Compound 49a, 5-[(E)-(5-Bromo-2,3-dihydro-1H-indene-1-ylidene)methyl]-1H-imidazolium chloride] | 13 | 92.8 | – | –
6 | 5-[(Z)-(5-Bromo-2,3-dihydro-1H-indene-1-ylidene)methyl]-1H-imidazolium oxalate [Compound 49b] | – | 10.3 | 15 | –
7 | Cl.Clc1ccc2c(c1)CC/C2=C\c1cnc[nH]1 [Compound 48a, 5-[(E)-(5-Chloro-2,3-dihydro-1H-indene-1-ylidene)methyl]-1H-imidazolium chloride] | 37 | – | – | –
8 | Fc1ccc2c(c1)CC/C2=C\c1ccncc1 [Compound 6a, 4-[(E)-(5-Fluoro-2,3-dihydro-1H-indane-1-ylidene)methyl]pyridine Hydrochloride] | 15 | 1100 | – | –
9 | 5-[(E)-(6-Chloro-3,4-dihydronaphth-1(2H)-ylidene)methyl]-1H-imidazolium chloride [Compound 46a] | – | 47.3 | 24 | –
10 | 5-[(Z)-3,4-Dihydronaphth-1(2H)-ylidenemethyl]-1H-imidazolium oxalate [Compound 41b] | – | – | 13 | –
11 | Fc1ccc2c(c1)CC/C2=C\c1cccc2cnccc12 [Compound 30a, 5-[(E)-(5-Fluoro-2,3-dihydro-1H-indane-1-ylidene)methyl]isoquinoline Hydrochloride] | 57 | 58.1 | – | –
12 | Clc1ccc2c(c1)CC/C2=C\c1ccncc1 [Compound 8a, 4-[(E)-(5-Chloro-2,3-dihydro-1H-indane-1-ylidene)methyl]pyridine Hydrochloride] | 18 | 1520 | – | –

More lines, main results first:

Row | inhibition at 2.5 µM [1] [%] | IC50 [2] [nM] | Compound | % Inhibition human CYP17 [1] [%] | Selectivity factor IC50 (CYP11B1)/IC50 (CYP11B2) ([2]; V79 cells expressing human CYP11B1 or CYP11B2)
13 | 26 | 26.2 | Clc1ccc2c(c1)CC/C2=C\c1cccnc1 [Compound 7a, 3-[(E)-(5-Chloro-2.3-dihydro-1H-indane-1-ylidene)methyl]pyridine Hydrochloride] | – | –
14 | 18 | 931 | C(=C1\CCc2ccccc21)/c1ccncc1 [Compound 2b, 4-[(Z)-2,3-Dihydro-1H-indane-1-ylidenemethyl]pyridine oxalate] | – | –
15 | 17 | 878 | COc1ccc2c(c1)CCC/C2=C/c1cccnc1.Cl [Compound 13b, 3-[(Z)-(6-Methoxy-3,4-dihydronaphthalene-1(2H)-ylidene)methyl]pyridine Hydrochloride] | – | –
16 | 49 | 26.4 | COc1ccc2c(c1)CC/C2=C/c1cccnc1 [Compound 11b, 3-[(Z)-(5-Methoxy-2,3-dihydro-1H-indane-1-ylidene)methyl]pyridine Hydrochloride] | – | –
17 | 14 | 8.7 | Clc1cccc2c1CC/C2=C\c1cccnc1 [Compound 25a, 3-[(E)-(4-Chloro-2,3-dihydro-1H-indane-1-ylidene)methyl]pyridine Hydrochloride] | – | –
18 | 9 | 21.6 | C(=C1/CCCc2ccccc21)/c1cccnc1.Cl [Compound 3a, 3-[(E)-3,4-Dihydronaphthalene-1(2H)-ylidenemethyl]pyridine Hydrochloride] | – | –
19 | 13 | 79.4 | CCOc1ccc2c(c1)CC/C2=C\c1cccnc1 [Compound 19a, 3-[(E)-(5-Ethoxy-2,3-dihydro-1H-indane-1-ylidene)methyl]pyridine Hydrochloride] | – | –
20 | 36 | 34.2 | COc1ccc2c(c1)CC/C2=C\c1cccnc1 [Compound 11a, 3-[(E)-(5-Methoxy-2,3-dihydro-1H-indane-1-ylidene)methyl]pyridine Hydrochloride] | – | –
21 | 24 | 141 | C(=C1\CCCc2ccccc21)/c1cccnc1.Cl [Compound 3b, 3-[(Z)-3,4-Dihydronaphthalene-1(2H)-ylidenemethyl]pyridine Hydrochloride] | – | –
22 | 32 | 30.6 | Clc1cccc2c1CC/C2=C/c1cccnc1 [Compound 25b, 3-[(Z)-(4-Chloro-2,3-dihydro-1H-indane-1-ylidene)methyl]pyridine Hydrochloride] | – | –
23 | 6 | 27.4 | Fc1ccc2c(c1)CC/C2=C\c1cncnc1 [Compound 28a, 5-[(E)-(5-Fluoro-2,3-dihydro-1H-indane-1-ylidene)methyl]pyrimidine Hydrochloride] | – | –
24 | 20 | 56.6 | COc1ccc2c(c1)CCC/C2=C\c1cccnc1 [Compound 13a, 3-[(E)-(6-Methoxy-3,4-dihydronaphthalene-1(2H)-ylidene)methyl]pyridine Hydrochloride] | – | –
25 | 24 | 171 | Brc1ccc2c(c1)CC/C2=C/c1cccnc1 [Compound 9b, 3-[(Z)-(5-Bromo-2,3-dihydro-1H-indane-1-ylidene)methyl]pyridine Hydrochloride] | – | –
26 | 28 | 72.7 | Clc1ccc2c(c1)CC/C2=C/c1cccnc1 [Compound 7b, 3-[(Z)-(5-Chloro-2,3-dihydro-1H-indane-1-ylidene)methyl]pyridine Hydrochloride] | – | –
27 | 42 | 20.9 | Fc1cccc2c1CC/C2=C\c1cccnc1 [Compound 24a, 3-[(E)-(4-Fluoro-2,3-dihydro-1H-indane-1-ylidene)methyl]pyridine Hydrochloride] | – | –
28 | 40 | 108 | Cc1cccc2c1CC/C2=C\c1cccnc1 [Compound 23a, 3-[(E)-(4-Methyl-2,3-dihydro-1H-indane-1-ylidene)methyl]pyridine Hydrochloride] | – | –
29 | 5 | 26.7 | COc1cccc2c1/C(=C/c1cccnc1)CC2 [Compound 26a, 3-[(E)-(7-Methoxy-2,3-dihydro-1H-indane-1-ylidene)methyl]pyridine Hydrochloride] | – | –
